{
  "source": "patent US20170137818A1",
  "about": "“APTAMER INHIBITING BIOLOGICAL ACTIVITY OF AUTOTAXIN BY BINDING WITH AUTOTAXIN, AND USE THEREOF” (RIBOMIC INC., priority 2014, published 2017)",
  "key": {"autotaxin [1]": {"target": "T1, autotaxin (Homo sapiens, UniProt Q13822)", "T1 construct": "His; purchased R&D", "assay": "NPP2 inhibitory assay (pNP-TMP substrate)", "assay_type": "biochemical", "settings": "mean of 2-3 measurements ± standard deviation", "source_text": "Whether an aptamer inhibits the enzyme activity of autotaxin can be evaluated, for example, by the following test. As a substrate of autotaxin, phosphodiester bond-containing synthetic substrate p-nitrophenyl thymidine 5′-monophosphate (pNP-TMP) (SIGMA) is used. A phosphodiester bond is cleaved by hydrolysis, and p-nitrophenol is liberated. The p-nitrophenol develops a yellow color, and the color is detected. For the assay, a 96-well plate (96-Well EIAsurasshuRIA Polystyrene Plates, Costar) was used, and the amount of the reaction mixture was 200 μL. Nucleic acid was prepared in solution A (see below-mentioned Example 1) (100 μL), pNP-TMP (20 μL) adjusted to 10 mM in the reaction mixture A was added, and the mixture was stirred well and heated at 37° C. for 5 min. On the other hand, 6 ng of autotaxin (Recombinant Human, manufactured by R&D) diluted with solution A was prepared (80 μL), and heated at 37° C. for 5 min. After heating, they were mixed to start an enzyme reaction. The final autotaxin concentration in the reaction solution was 0.3 nM, and the final substrate concentration was 1 mM. A plate containing the reaction mixture was heated at 37° C. for 24 hr, placed in a microplate reader SpectraMax190 (manufactured by Molecular Devices) and the absorbance was determined at wavelength 405 nm. The absorbance when nucleic acid is not added as 100% (A0), an enzyme activity rate was determined from the absorbance (A) of each test substance and according to the following formula.\nEnzyme activity rate=(A/A0)×100\n(§1) The concentration (IC50) of an inhibitor necessary for inhibiting the enzyme activity by 50% was determined.\nWhether these nucleic acids show an autotaxin inhibitory activity was evaluated by the following method. As a substrate of autotaxin, phosphodiester bond-containing synthetic substrate p-nitrophenyl thymidine 5′-monophosphate (pNP-TMP) (SIGMA) was selected (hereinafter to be referred to as NPP2 inhibitory assay). A phosphodiester bond is cleaved by hydrolysis, and p-nitrophenol is liberated. The p-nitrophenol develops a yellow color, and the color is detected. For the assay, a 96-well plate (96-Well EIA/RIA Polystyrene Plates, Costar) was used, and the amount of the reaction mixture was 200 μL. As the reaction mixture, solution A was used. Nucleic acids were prepared in solution A (100 μL), pNP-TMP (20 μL) adjusted to 10 mM in the reaction mixture A was added, and the mixture was stirred well and heated at 37° C. for 5 min. On the other hand, 6 ng of autotaxin diluted with solution A was prepared (80 μL), and heated at 37° C. for 5 min. After heating, they were mixed to start enzyme reaction. The final autotaxin concentration in the reaction solution was 0.3 nM, and the final substrate concentration was 1 mM. A plate containing the reaction mixture was heated at 37° C. for 24 hr, placed in a microplate reader SpectraMax190 (manufactured by Molecular Devices) and the absorbance was determined at wavelength 405 nm. The absorbance when nucleic acids are not added as 100% (A0), an […] was determined from the absorbance (A) of each test substance and according to the following formula.\nas §1"}, "autotaxin [2]": {"target": "T1, autotaxin", "assay": "Biacore surface plasmon resonance, nucleic acid immobilized on SA chip, autotaxin as analyte", "assay_type": "binding", "settings": "Example 1, running text", "experimental": "Biacore T100 manufactured by GE Healthcare is used for the measurement of binding strength. In one measurement method, an aptamer is first immobilized on a sensorchip. The immobilization amount is set to about 1500 RU. An autotaxin solution as an analyte prepared to 0.020 μM is injected by 20 μL, and binding of the autotaxin to the aptamer is detected.\nAll nucleic acids shown in SEQ ID NOs: 4-10 were produced by chemical synthesis. The binding activity of these nucleic acids to autotaxin was evaluated by the surface plasmon resonance method. For the measurement, Biacore T100 manufactured by GE Healthcare was used. The SA chips with streptavidin immobilized thereon were used as the sensor chips. Binding thereto was about 1500 RU of 16 nucleotide Poly dT of which biotin was bound to the 5′-terminus. The nucleic acids used as a ligand were added with Poly A (16 nucleotides) to the 3′-terminus, and were immobilized on SA chips by T-A annealing. The nucleic acids (20 μL) were injected at a flow rate of 20 μL/min to immobilize about 1500 RU of the nucleic acids. An autotaxin for analyte was prepared at 0.02 μM, and 20 μL thereof was injected. As a running buffer, solution A (mixed solution of 145 mM sodium chloride, 5.4 mM potassium chloride, 1.8 mM calcium chloride, 0.8 mM magnesium chloride, 20 mM Tris (pH 7.6), 0.05% Tween20) was used."}, "autotaxin [3]": {"target": "T1, autotaxin", "assay": "Biacore surface plasmon resonance, autotaxin immobilized on CM4 chip, nucleic acid as analyte", "assay_type": "binding", "settings": "autotaxin immobilized about 2700 RU, nucleic acid 0.3 μM as analyte; maximum RU relative to SEQ ID NO: 12", "experimental": "In another measurement method, an autotaxin is first immobilized on a sensorchip. The immobilization amount is set to about 2700 RU. An aptamer solution as an analyte prepared to 0.30 μM is injected by 20 μL, and binding of the aptamer to the autotaxin is detected.\nAll nucleic acids of SEQ ID NOs: 11-16 were produced by chemical synthesis. Whether these nucleic acids bind to autotaxin was evaluated by the surface plasmon resonance method. For the measurement, Biacore T100 manufactured by GE Healthcare was used, and the measurement was performed by the method shown below. About 2700 RU autotaxin was immobilized on a sensorchip surface of CM4 chip by using an amino coupling kit. The flow rate was 20 μL/min, and nucleic acids (20 μL) prepared to 0.3 μM were injected as an analyte. As a running buffer, solution A was used."}, "autotaxin [4]": {"target": "T1, autotaxin", "assay": "LysoPLD inhibitory assay (14:0 LPC substrate, choline detection)", "assay_type": "biochemical", "source_text": "As a substrate of autotaxin, 14:0 lysophosphatidylcholine (LPC, Avanti) was selected (hereinafter to be referred to as LysoPLD inhibitory assay). LPC is hydrolyzed by the lysophospholipase D activity of autotaxin and decomposed into lysophosphatidic acid (LPA) and choline. Choline is oxidized by choline oxidase to afford hydrogen peroxide. In the presence of the hydrogen peroxide and peroxidase, N-ethyl-N-(2-hydroxy-3-sulfopropyl)-3-methoxyaniline (TOOS) and 4-aminoantipyrine (4-AA) undergo oxidation condensation reaction, which develops a purple color to be detected.\nFor the reaction, a 96-well plate (polypropylene 96-well, manufactured by BMbio) was used, and the amount of the reaction mixture was 60 μL. As a reaction solution, solution A was used. […] The lysophospholipase D activity of autotaxin was evaluated as follows. […] The absorbance was measured at a wavelength of 548 nm, and used as a blank value. Then, solution C (50 μL) was added, and changes in the absorbance at wavelength 548 nm were measured over time. Solution C contained 100 mM tris (pH 8.0), 10 U/mL choline oxidase (manufactured by TOYOBO), 1 mM 4-AA (manufactured by DOJINDO), and 0.01% Triton-X. The absorbance of solution blank at the time point when solution B was added, which had been measured earlier, was subtracted from the absorbance at 15 min after addition of solution C, whereby true absorbance value was obtained. […]"}, "[5]": {"settings": "Table 4, >1.0 = no inhibitory activity up to 1.0 μM"}},
  "data": [
    {"molecule": "27 (TACGCTCGGAACCGAGGCAATTGGTCAGCGTG; DNA, backbone and methylation of C not given here) [compound 27]", "values": [
      {"measurement": "IC50", "setting": "autotaxin [1]; [5]", "value": "24 ± 10", "unit": "nM"}
    ]},
    {"molecule": "GTGGTCTAGCTGTACTCNNNNNNNNNNNNNNNNNNNNNNNNNNNNNNNNNNNNNNNNCCACAGTCAACGAGCTA [SEQ ID NO: 1(40N), reference compound]", "values": [
      {"measurement": "binding to autotaxin (in words)", "setting": "autotaxin [2]", "value": "not bind"}
    ]},
    {"molecule": "29 (GCTGGCCGGAACCGTGCATATGGTCGCCAGC; DNA, backbone and methylation of C not given here) [compound 29]", "values": [
      {"measurement": "IC50", "setting": "autotaxin [1]; [5]", "value": "11 ± 4", "unit": "nM"}
    ]},
    {"molecule": "15 (CCTGGACGGAACCAATACTTGGTCTCCAGG; DNA, backbone and methylation of C not given here) [compound 15]", "values": [
      {"measurement": "Binding activity by Biacore", "setting": "autotaxin [3]", "value": "− (not more than 10% of the aptamer shown in SEQ ID NO: 12 that showed the highest binding amount)"},
      {"measurement": "IC50", "setting": "autotaxin [1]; Table 2", "value": "990 ± 11", "unit": "nM"}
    ]},
    {"molecule": "CCCCCCCCCCCCCC(=O)Nc1ccc(CP(=O)(O)O)cc1", "note": "[S32826]", "values": [
      {"measurement": "LysoPLD inhibitory activity (in words)", "setting": "autotaxin [4]", "value": "an inhibitory activity was not found"},
      {"measurement": "IC50", "setting": "autotaxin [4]; autotaxin 2.1 nM, 14:0 LPC 2 mM, 37° C. 6 hr, mean of 2-3 measurements±standard deviation, >1000 = no inhibitory activity up to 1000 nM", "value": "> 1000", "unit": "nM"}
    ]},
    {"molecule": "28 (ACAGGCGCTGGCCGGAACCGTGCATATGGTC; DNA, backbone and methylation of C not given here) [compound 28]", "values": [
      {"measurement": "IC50", "setting": "autotaxin [1]; [5]", "value": "> 1000", "unit": "nM"}
    ]},
    {"molecule": "12 (CCTGGACGGAACCAGAATACTTTTGGTCTCCAGG; chemistry not fully specified) [compound 12]", "values": [
      {"measurement": "Binding activity by Biacore", "setting": "autotaxin [3]", "value": "+ (not less than that)"}
    ]},
    {"molecule": "11 (GTACTCATGGACGGAACCAGAATACTTTTGGTCTCCATTGAGTAC; chemistry not fully specified) [compound 11]", "values": [
      {"measurement": "Binding activity by Biacore", "setting": "autotaxin [3]", "value": "+ (not less than that)"}
    ]},
    {"molecule": "16 (CTGGACGGAACCAGAATACTTTTGGTCTCCAG; DNA, backbone and methylation of C not given here) [compound 16]", "values": [
      {"measurement": "Binding activity by Biacore", "setting": "autotaxin [3]", "value": "+ (not less than that)"},
      {"measurement": "IC50", "setting": "autotaxin [1]; Table 2", "value": "18 ± 1", "unit": "nM"}
    ]},
    {"molecule": "26 (CGCTGGGGTACGCTCGGAACCGAGGCAATTGGTCAGCG; DNA, backbone and methylation of C not given here) [compound 26]", "values": [
      {"measurement": "IC50", "setting": "autotaxin [1]; [5]", "value": "440 ± 41", "unit": "nM"}
    ]},
    {"molecule": "13 (TGGACGGAACCAGAATACTTTTGGTCTCCA; DNA, backbone and methylation of C not given here) [compound 13]", "values": [
      {"measurement": "Binding activity by Biacore", "setting": "autotaxin [3]", "value": "+ (not less than that)"},
      {"measurement": "IC50", "setting": "autotaxin [1]; Table 2", "value": "110 ± 7", "unit": "nM"}
    ]},
    {"molecule": "14 (GGGACGGAACCAGAATACTTTTGGTCTCCC; DNA, backbone and methylation of C not given here) [compound 14]", "values": [
      {"measurement": "Binding activity by Biacore", "setting": "autotaxin [3]", "value": "+ (not less than that)"},
      {"measurement": "IC50", "setting": "autotaxin [1]; Table 2", "value": "42 ± 5", "unit": "nM"}
    ]}
  ]
}
